Reference: article PMC8620685, “Effect of Selected Silyl Groups on the Anticancer Activity of 3,4-Dibromo-5-Hydroxy-Furan-2(5H)-One Derivatives” (Pharmaceuticals, 2021)
Entries after “also recorded” stand apart in the source; their conditions may differ. Where two headings read alike, the source gives them in different places.

Assays:
HCT-116 cells [1] = assay: Clonogenic (colony-formation) assay; format: cell-based, human; conditions: HCT-116, 10 μM for 24 h, then 10 days in drug-free medium
Method: We next sought to investigate the effects of the MBA and compound 3b clonogenic potential of the HCT-116 cell line. The cells were treated with compounds 1 and 3b at 10 μM for 24 h. After harvesting, the cells were re-seeded and cultivated for another 10 days in a drug-free medium.
The HCT116 wt cells (5 × 10^4 cells/well) were plated in 6-well plates (Nunc, ThermoFisher, Waltham, USA) and treated with the tested compounds for 24 and 72 h. Cells were harvested by trypsinization and then re-seeded on the new 6-well plate (Nunc, ThermoFisher, Waltham, MA, USA) with a density of 2 × 10^3 cells/well. After 10 days the cells were washed with cold PBS (Sigma-Aldrich, Taufkirchen, Germany), fixed in ice-cold ethanol (−20 °C) for 3 minutes, air-dried, washed again with cold PBS and stained with 0.01% crystal violet (Sigma-Aldrich, Taufkirchen, Germany) in dH2O (deionized water) for 15 min. Next the plates were washed in dH2O and allowed to dry. Colonies were counted with a microscope (Zeiss, Oberkochen, Germany). Aggregates of 30 cells or more were considered as colonies. Photos were made using the G:Box transilluminator (Syngene, Cambridge, UK).

HepG2 = assay: MTT assay, HepG2; format: cell-based; conditions: Homo sapiens, read-out: IC50 (cytotoxicity), HepG2
Method: (§1) The in vitro antitumor activities of the MBA and its derivatives (Table 2) were assayed against a panel of human cancer cell lines (HCT116, HCT-116 ^−/−p53, HT-29, MCF-7, SJSA-1, U2OS, HepG2 and Hep3B) using the MTT assay. As a reference drug we used 5-fluorouracil (5-FU). […] On the basis of in vitro antiproliferative activities, compounds 3b and 3c were selected for further mechanistic studies in the HCT-116 cell line.
Human cells lines: colon cancer (HCT-116 wt, HT-29), non-small lung carcinoma (A549), and bronchial epithelial cells (BEAS-2B) were obtained from American Type Culture Collection (ATCC, Manassas, VA, USA). Isogenic cell line HCT 116 p53^−/− (deleted both p53 alleles) were a gift from Dr. Bert Vogelstein. Other cell lines, namely MCF-7, SJSA-1, U2OS, HepG2, and Hep3B were received from the collection stored at Centre of Biotechnology of Silesian University of Technology. All cells were grown in DMEM with a high glucose medium (Sigma-Aldrich, Taufkirchen, Germany) supplemented with 10% (v/v) inactivated fetal bovine serum (FBS) (EURx, Gdańsk, Poland) and 1% antibiotics (10,000 μg/mL of streptomycin and 10,000 units/ml of penicillin) (Sigma-Aldrich, Taufkirchen, Germany) at 37 °C in humidified 5% CO2. The maximum concentration of DMSO in the culture media was 0.4%.
5 × 10^3 cells per well for the MCF-7 cell line and 2.5 × 10^3 cells per well for the other cell lines were seeded in 96-well plates to adhere for 24 h. Afterward, the cells were treated with tested compounds. After 72 hours of incubation, 50 μL 0.5 mg/ml solution of MTT (3-(4,5-dimethylthiazol-2-yl)-2,5-diphenyl-2H-tetrazolium bromide) were added to each well and the plates were incubated for 3 h at 37 °C. Next, the MTT solution was removed from the plates and formed formazan crystals were dissolved in 2-propanol (Avantor Performance Materials, Gliwice, Poland) containing 0.04 M hydrochloric acid (Avantor Performance Materials, Gliwice, Poland). The absorbance was measured at 570 nm wavelength using a multiwall plate reader (BioTek, Winooski, VT, USA). […]

HCT-116 cells [2] = assay: Cell cycle analysis (PI staining, flow cytometry); format: cell-based, human; conditions: 24 h; for effect on progression of the cell cycle / increase of the sub-G1 population / sub-G1 cells: HCT-116; for sub-G1 cells: untreated cells 0.3%
Method: To better understand the origin of the higher susceptibility of colon cancer cells to MBA and its novel derivatives, compounds 3b and 3c were selected to test their ability to perturb the cell cycle in the HCT-116 cell line. […] However, a significant increase in the percentage of sub-G1 cells after treatment with compounds 3b and 3c was observed. Compound 3b increased the sub-G1 population by 10% and 31%, at a concentration of 10 μM and 20 μM, respectively, while compound 3c exerts such effect only by 10% at the highest tested concentration (Figure 2).
The HCT 116 cells were seeded in 6-well plates (Nunc, ThermoFisher, Waltham, MA, USA) at a density of 5 × 10^4 cells/well. After 24 h the medium was replaced with tested compounds. The cells were incubated for 24 h at 37 °C. Afterward, floating cells were collected and adherent cells were harvested by trypsinization and centrifuged at 600× g. The cells were washed with PBS (phosphate buffered saline) (Sigma-Aldrich, Taufkirchen, Germany) and then fixed in 70% ice-cold ethanol and stored at −20 °C overnight. The next day the cells were centrifuged at 600× g, washed with PBS, treated with 100 μg/mL RNase A solution (EURx, Gdańsk, Poland), 100 μg/ml solution of propidium iodide (PI) (Acros Organics, Geel, Belgium) and incubated for 30 min at room temperature in the dark. After staining, the cells were analyzed using a Becton Dickinson FACS Aria III sorter (BD Company, San Diego, CA, USA). Experiments were repeated at least twice. Data were analyzed using ModFit LTTM Software (Verity Software House, Topsham, ME, USA).

[3] = test system: panel of human cancer cell lines (HCT116, HCT-116 −/−p53, HT-29, MCF-7, SJSA-1, U2OS, HepG2 and Hep3B); assay: MTT assay, panel of human cancer cell lines; format: cell-based; conditions: 72 h incubation, read-out: IC50 range across all tested cancer cells
Method: as §1
Human cells lines: colon cancer (HCT-116 wt, HT-29), non-small lung carcinoma (A549), and bronchial epithelial cells (BEAS-2B) were obtained from American Type Culture Collection (ATCC, Manassas, VA, USA). Isogenic cell line HCT 116 p53^−/− (deleted both p53 alleles) were a gift from Dr. Bert Vogelstein. Other cell lines, namely MCF-7, SJSA-1, U2OS, HepG2, and Hep3B were received from the collection stored at Centre of Biotechnology of Silesian University of Technology. […]
5 × 10^3 cells per well for the MCF-7 cell line and 2.5 × 10^3 cells per well for the other cell lines were seeded in 96-well plates to adhere for 24 h. […] The absorbance was measured at 570 nm wavelength using a multiwall plate reader (BioTek, Winooski, VT, USA). […]

## CC(C)[Si](OC1OC(=O)C(Br)=C1Br)(C(C)C)C(C)C (centres unmarked) [Compound 3b, 3,4-Dibromo-5-(triisopropylsilyloxy)-furan-2(5H)-one]
HCT-116 cells [1]
  clonogenic potential (re-growth of colonies): completely abolished the re-growth of HCT-116 colonies; also recorded: abolishes the clonogenic potential
HepG2; HepG2, MTT, 72 h incubation
  IC50: 15.6 ± 1.2 µM
HCT-116 cells [2]; 10 μM
  effect on progression of the cell cycle: neither the MBA nor its silyl derivatives 3b and 3c tested at 10 μM, influenced the progression of the cell cycle
  increase of the sub-G1 population: 10%
HCT-116 cells [2]; 20 μM
  effect on progression of the cell cycle: did not alter the progression of the cell cycle
  increase of the sub-G1 population: 31%
[3]
  IC50: 7.3 to 21.3 µM

## CC(C)(C)[Si](OC1OC(=O)C(Br)=C1Br)(c1ccccc1)c1ccccc1 (centres unmarked) [Compound 3c, 3,4-Dibromo-5-(tert-butyldiphenylsilyloxy)-furan-2(5H)-one]
HCT-116 cells [2]; 10 μM
  effect on progression of the cell cycle: neither the MBA nor its silyl derivatives 3b and 3c tested at 10 μM, influenced the progression of the cell cycle
HCT-116 cells [2]; 20 μM
  effect on progression of the cell cycle: did not alter the progression of the cell cycle
  increase of the sub-G1 population: 10%
[3]
  IC50: 3.9 to 65.6 µM

## O=C1OC(O)C(Br)=C1Br (centres unmarked) [MBA, 3,4-dibromo-5-hydroxyfuran-2(5H)-one, reference compound]
HCT-116 cells [1]
  clonogenic potential (re-growth of colonies): attenuated the clonogenic potential of HCT-116 to a much less extent
HepG2; HepG2, 72 h
  IC50: 91.7 ± 2.2 µM
HCT-116 cells [2]; 10 μM
  effect on progression of the cell cycle: neither the MBA nor its silyl derivatives 3b and 3c tested at 10 μM, influenced the progression of the cell cycle
  sub-G1 cells: 0.7%
HCT-116 cells [2]; 20 μM, HCT 116, representative cytogram
  percentage of cells in G1 phase: 38.9%
HCT-116 cells [2]; 20 μM
  sub-G1 cells: 1.6%
